According to patent US3980794A, “Method for promoting growth of poultry with 3-(5-nitro-2-imidazolyl)pyrazoles” (Eli Lilly and Company, priority 1975, dated 1976):
Converted amounts (≈) assume the structure as drawn. Like-named read-outs stand apart in the source and are kept apart here.

Columns and labels:
[1] = tested on: Bacteroides fragilis sp. thetaiotaomicron 1438; assay: Susceptibility of anaerobic bacteria, agar dilution; assay type: cell-based; details: Bacteroides fragilis, 24 h, read-out: 24 Hr. Minimum Inhibitory Concentration
[2] = tested on: Bacteroides fragilis sp. fragilis 1877; assay: as above; assay type: cell-based; details: Bacteroides fragilis, 24 h, read-out: 24 Hr. Minimum Inhibitory Concentration
[3] = tested on: Bacteroides fragilis sp. fragilis 1936B; assay: as above; assay type: cell-based; details: Bacteroides fragilis, 24 h, read-out: 24 Hr. Minimum Inhibitory Concentration
Actinomyces bovis 13684 = assay: as above; assay type: cell-based; details: read-out: 24 Hr. Minimum Inhibitory Concentration
[4] = tested on: Veillonella alcalescens 1; assay: as above; assay type: cell-based; details: read-out: 24 Hr. Minimum Inhibitory Concentration
[5] = tested on: Eubacterium aerofaciens 1235; assay: as above; assay type: cell-based; details: Collinsella aerofaciens, 1235, 24 h, read-out: 24 Hr. Minimum Inhibitory Concentration
[6] = tested on: Bacteroides fragilis sp. vulgatus 1211; assay: as above; assay type: cell-based; details: Bacteroides fragilis, 24 h, read-out: 24 Hr. Minimum Inhibitory Concentration
[7] = tested on: Fusobacterium symbiosum 1470; assay: as above; assay type: cell-based; details: Fusobacterium, 1470, 24 h, read-out: 24 Hr. Minimum Inhibitory Concentration
[8] = tested on: Clostridium septicum bovine; assay: as above; assay type: cell-based; details: 24 h, read-out: 24 Hr. Minimum Inhibitory Concentration
Method: (§1) The susceptibility of anaerobic bacteria, both gram positive and gram negative, to a representative number of the novel compounds of this application was determined using the agar dilution method. The bacteria used were isolated from patients hospitalized at the Indiana University Medical Center. The isolates were identified in the anaerobe laboratory of the Medical Center by the criteria established by Dowell et al., Laboratory Methods in Anaerobic Bacteriology. Public Health Serv. Publ. No. 1803 (1968) [Center for Disease Control, Atlanta, Ga.]; and by Smith et al., The Pathogenic Anaerobic Bacteria, pages 96-136 (1968) [Charles C. Thomas, Publisher, Springfield, Ill.]. All the organisms were maintained in chopped meat glucose medium (Scott Labs) at room temperature.
(§2) The method used for the agar dilution tests was based on the studies of Sutter et al., Antimicrob. Ag. Chemother. 3, 188-193 (1973). The strains of anaerobic bacteria were grown in 16 × 120 mm. tubes for 16 to 18 hours in Thioglycolate medium without indicator--135C (Becton, Dickinson and Co.), to which was added 5 mcg. of hemin per milliliter prior to autoclaving, plus 1 mg. of sodium bicarbonate and 0.1 mcg. of filter-sterilized menadione per milliliter after autoclaving. The growth tubes for the bacteria Veillonella alcalescens were additionally supplemented with 5 mg. of sodium lactate per milliliter. The strains were adjusted to the turbidity of the No. 1 McFarland standard in Thioglycolate medium without indicator--135C containing an additional 0.13 percent Bacto-agar (Difco). Each strain was then applied to the surface of the petri plate (100 mm. × 15 mm.) by means of a replicator.
(§3) For the agar dilution studies, two-fold dilutions of the test compounds were prepared in deionized water to which was then added laked sheep blood and filter-sterilized menadione so the concentrations after the agar dilution were 5 percent and 10 mcg./ml. respectively. An equal volume of double strength Brucella agar (Becton, Dickinson and Co.) was mixed with each dilution in a water bath held at 50°C. and then poured onto the petri plates.
(§4) All of the procedures were done inside a plastic glove box, except for the incubation of the growth tubes and the pouring of the plates. After the plates hardened, they were put inside the glove box for a minimum of two hours before they were inoculated. Generally, the glove box procedures of Aranki et al., Applied Microbiology 17, 568-576 (1969), were followed, but the following modifications were used. Dry materials were introduced into the glove box by evacuating the lock to 28 inches of mercury and filling once with nitrogen gas, followed by evacuating in the same manner and filling with an 80 percent nitrogen plus 10 percent CO2 plus 10 percent hydrogen gas mixture. Liquid media and agar plates were introduced into the glove box by evacuating the lock to 10 inches of mercury and filling with gas four times. The nitrogen gas was used to fill the lock for the first two cycles of evacuation, with the gas mixture described above used for the final two fillings.
(§5) All the plates were incubated at 37°C. in Gas Pak jars (Becton, Dickinson and Co.) containing palladium-coated alumina catalysts (reactivated after each use). The results of the agar dilution tests were read after about 24 hours of incubation. The minimum inhibitory concentration (MIC) was recorded as the lowest concentration of test compound at which there was no growth.
(§6) The results of these in vitro tests are recorded in Charts 11 and 12 which follow. The test compounds are identified in the same manner as in the previous experiments. The antibiotics cephalothin and erythromycin were also run simultaneously with the novel compounds of this application, for comparison purposes, and the results are included in Charts 11 and 12 below.

[9] = tested on: Clostridium septicum 1128; assay: as above; assay type: cell-based; details: 24 h, read-out: 24 Hr. Minimum Inhibitory Concentration
Method: as §1, §2, §3, §4, §5, §6

[10] = tested on: Peptostreptococcus intermedius 1264; assay: as above; assay type: cell-based; details: read-out: 24 Hr. Minimum Inhibitory Concentration
[11] = tested on: Peptococcus anaerobius 1428; assay: as above; assay type: cell-based; details: 24 h, read-out: 24 Hr. Minimum Inhibitory Concentration
[12] = tested on: Bacteroides fragilis sp. vulgatus 1563; assay: as above; assay type: cell-based; details: Bacteroides fragilis, 24 h, read-out: 24 Hr. Minimum Inhibitory Concentration
[13] = tested on: Propionibacterium acnes 44; assay: as above; assay type: cell-based; details: read-out: 24 Hr. Minimum Inhibitory Concentration
Clostridium ramosum 1313 = assay: as above; assay type: cell-based; details: Thomasclavelia ramosa, 24 h; Clostridium ramosum 1313; read-out: 24 Hr. Minimum Inhibitory Concentration
[14] = tested on: Propionibacterium acnes 79; assay: as above; assay type: cell-based; details: Cutibacterium acnes, 79, 24 h, read-out: 24 Hr. Minimum Inhibitory Concentration
[15] = tested on: Fusobacterium necrophorum 13859; assay: as above; assay type: cell-based; details: Fusobacterium necrophorum, 13859, 24 h, read-out: 24 Hr. Minimum Inhibitory Concentration
[16] = tested on: Clostridium perfringens 81; assay: microbe, parasite or virus in culture; assay type: cell-based; details: Clostridium perfringens, 81, 24 h, read-out: 24 Hr. Minimum Inhibitory Concentration
[17] = tested on: Clostridium innocuum 1373; assay: Susceptibility of anaerobic bacteria, agar dilution; assay type: cell-based; details: read-out: 24 Hr. Minimum Inhibitory Concentration
Pasteurella multocida = assay: Efficacy against Pasteurella multocida infections in mice when administered by injection (Experiment 1); assay type: in vivo, Swiss mice; details: ip; for responders at 2.5 mg/kg: 2.5 mg./kg. i.p.; for responders at 5 mg/kg: 5.0 mg./kg. i.p.; for responders at 7.5 mg/kg: 7.5 mg./kg. i.p.
Method: The efficacy of the novel compounds against Pasteurella multocida infections in mice when administered by injection was studied.
Female Swiss mice weighing from 15 to about 20 g. were used. The test compound, 5.0 mg., was weighed out and dissolved in 0.5 ml. of dimethyl sulfoxide, and this solution was added to 9.5 ml. of sodium carboxymethylcellulose suspension. Groups of five mice each were injected intraperitoneally with 0.1 ml. each of the above-prepared test composition. This preparation gave a test rate of 2.5 mg. per kilo of body weight of mouse. The compounds were tested at 2.5, 5.0, or 7.5 mg. per kilo of body weight of mouse, and the test preparations for rates of 5.0 and 7.5 mg./kg. were prepared in a similar manner. Immediately after receiving the test compound, the mice were challenged using log10 dilutions of 10^-^4, 10^-^5, 10^-^6, and 10^-^7 of a 16 to 20-hour tryptose broth culture of Pasteurella multocida at 0.1 ml. per mouse subcutaneously. Similar groups of nontreated control mice were also challenged, the challenge being administered subcutaneously. The groups of mice were observed daily for mortality and the total mortality in treated groups compared with that which occurred in the nonmedicated control groups. Each test compound is identified by the number of the example describing its preparation.
In the chart, column 1 lists the test compound; column 2, the dosage of test compound in mg./kg. of mouse body weight; column 3, the dilution of the challenge organism; and column 4, the ratio of the number of mice surviving the test at each dosage and challenge dilution to the number of mice tested at each dosage and challenge dilution, called the survival ratio.

Salmonella typhimurium = assay: Control of infections caused by Salmonella typhimurium in chickens, subcutaneous (Experiment 2); assay type: in vivo; details: Salmonella enterica, sc, 144 h, 6 days, read-out: Survival Ratio (converted); for responders at 7.5 mg/kg: 7.5 mg./kg. subcutaneous; for responders at 15 mg/kg: 15 mg./kg. subcutaneous; for responders at 30 mg/kg: 30 mg./kg. subcutaneous; for responders at 60 mg/kg: 60 mg./kg. subcutaneous
Method: The efficacy of the novel compounds in the control of infections caused by Salmonella typhimurium in chickens was evaluated in the following manner.
The test was carried out using day-old chicks weighing approximately 35 g. each. The chicks were divided into groups of 5 chicks per each dosage level. A portion of the chicks received the test compound which was suspended in 0.2 ml. of polyethylene glycol 200 and administered subcutanusly in the neck. […] All the chicks were challenged with a 1:200 dilution of a culture of the organism, 0.1 ml. of the dilution being injected into each chick in the leg intramuscularly. […] The test compounds are identified in the same manner as set forth in Experiment 1.
In the chart, column 1 lists the compounds tested; column 2, the dosage of test compound in mg./kg.; and column 3, the survival ratio.

[18] = challenge dilution 10^-^4, read-out: Survival Ratio (converted)
[19] = challenge dilution 10^-^5, read-out: Survival Ratio (converted)
[20] = challenge dilution 10^-^6, read-out: Survival Ratio (converted)

Structure (SMILES)	MIC [1] [µg/mL]	MIC [2] [µg/mL]	MIC [3] [µg/mL]	MIC [5] [µg/mL]	MIC [6] [µg/mL]	MIC [7] [µg/mL]	MIC [8] [µg/mL]	MIC [9] [µg/mL]	MIC [11] [µg/mL]	MIC [12] [µg/mL]	MIC (Clostridium ramosum 1313) [µg/mL]	MIC [14] [µg/mL]	MIC [15] [µg/mL]	MIC [16] [µg/mL]	responders at 2.5 mg/kg (Pasteurella multocida; [18]) [%]	responders at 2.5 mg/kg (Pasteurella multocida; [19]) [%]	responders at 7.5 mg/kg (Salmonella typhimurium) [%]	responders at 15 mg/kg (Salmonella typhimurium) [%]	responders at 30 mg/kg (Salmonella typhimurium) [%]	responders at 60 mg/kg (Salmonella typhimurium) [%]	other results
CC(=O)OCC1=C(C(=O)O)N2C(=O)[C@@H](NC(=O)Cc3cccs3)[C@H]2SC1 [Cephalothin, cephalothin, reference compound]	64 (≈ 161 µM)	> 128	> 128	2 (≈ 5.04 µM)	4 (≈ 10.1 µM)	64 (≈ 161 µM)	4 (≈ 10.1 µM)	1 (≈ 2.52 µM)	2 (≈ 5.04 µM)	8 (≈ 20.2 µM)	8 (≈ 20.2 µM)	1 (≈ 2.52 µM)	< 0.5	2 (≈ 5.04 µM)	–	–	–	–	–	–	MIC (Actinomyces bovis 13684; 24 h, Actinomyces bovis 13684): 2 µg/mL (≈ 5.04 µM); MIC ([4]; Veillonella parvula, 24 h, Veillonella alcalescens 1): < 0.5 µg/mL; MIC ([10]; Peptostreptococcus, 1264, 24 h): 1 µg/mL (≈ 2.52 µM); MIC ([13]; Cutibacterium acnes, 44, 24 h): 2 µg/mL (≈ 5.04 µM); MIC ([17]; 24 h, Clostridium innocuum 1373): 8 µg/mL (≈ 20.2 µM)
Cn1nc(-c2ncc([N+](=O)[O-])n2C)cc1N [Compound 3, 5-Amino-1-methyl-3-(1-methyl-5-nitro-2-imidazolyl)pyrazole]	< 0.125	< 0.125	< 0.125	< 0.125	< 0.125	< 0.125	< 0.125	< 0.125	< 0.125	< 0.125	4 (≈ 18 µM)	< 0.125	< 0.125	< 0.125	–	–	–	–	–	–	MIC (Actinomyces bovis 13684; Actinomyces bovis, 13684, 24 h): < 0.125 µg/mL; MIC ([4]; Veillonella parvula, 1, 24 h): < 0.125 µg/mL; MIC ([10]; 24 h, Peptostreptococcus intermedius 1264): 16 µg/mL (≈ 72 µM); MIC ([13]; Cutibacterium acnes, 24 h, Propionibacterium acnes 44): 0.5 µg/mL (≈ 2.25 µM); MIC ([17]; [Clostridium] innocuum, 1373, 24 h): < 0.125 µg/mL
CC(=O)N(C(C)=O)c1c(C#N)c(-c2ncc([N+](=O)[O-])n2C)nn1C [Compound 5, N-[4-Cyano-1-methyl-3-(1-methyl-5-nitro-2-imidazolyl)pyrazol-5-yl]diacetamide]	–	–	–	–	–	–	–	–	–	–	–	–	–	–	100	90	0	0	40	45	responders at 2.5 mg/kg (Pasteurella multocida; [20]): 100%
CCOC(C)=Nc1c(C#N)c(-c2ncc([N+](=O)[O-])n2C)nn1C [Compound 13, Ethyl N-[4-cyano-1-methyl-3-(1-methyl-5-nitro-2-imidazolyl)pyrazol-5-yl]acetimidate]	–	–	–	–	–	–	–	–	–	–	–	–	–	–	–	–	53.3	40	55	65	–
Cn1nc(-c2ncc([N+](=O)[O-])n2C)c(C#N)c1N=COCCCl [Compound 13B, 2-Chloroethyl N-[4-cyano-1-methyl-3-(1-methyl-5-nitro-2-imidazolyl)pyrazol-5-yl]formimidate]	–	–	–	–	–	–	–	–	–	–	–	–	–	–	–	–	10	65	50	70	responders at 5 mg/kg (Pasteurella multocida; [18]): 90%; responders at 5 mg/kg (Pasteurella multocida; [19]): 70%; responders at 5 mg/kg (Pasteurella multocida; [20]): 80%
CC(C)COC=Nc1c(C#N)c(-c2ncc([N+](=O)[O-])n2C)nn1C [Compound 13C, Isobutyl N-[4-cyano-1-methyl-3-(1-methyl-5-nitro-2-imidazolyl)pyrazol-5-yl]formimidate]	–	–	–	–	–	–	–	–	–	–	–	–	–	–	40	30	0	46.7	53.3	66.7	responders at 2.5 mg/kg (Pasteurella multocida; [20]): 70%; responders at 5 mg/kg (Pasteurella multocida; [18]): 40%; responders at 5 mg/kg (Pasteurella multocida; [19]): 80%; responders at 5 mg/kg (Pasteurella multocida; [20]): 90%; responders at 7.5 mg/kg (Pasteurella multocida; challenge dilution 10^-^4, read-out: Survival Ratio): 80%; responders at 7.5 mg/kg (Pasteurella multocida; challenge dilution 10^-^5, read-out: Survival Ratio): 100%; responders at 7.5 mg/kg (Pasteurella multocida; challenge dilution 10^-^6, read-out: Survival Ratio): 100%
